pEC50: −log10 of the molar value. “Also recorded” adds a separate entry of the source. Positions of bridges follow the written chain, without caps; N, C: chain ends. Non-standard residues stand in square brackets, D forms with d. Residues, ends and D or L forms follow the SMILES beside them. No end group written: not given here. 2Nal = N[C@@H](Cc1ccc2ccccc2c1)C(=O)O; Cit = NC(=O)NCCC[C@H](N)C(=O)O
What was measured:
[1] = molecular target: T1, CXCR4 (Homo sapiens, UniProt P61073); conditions: cited from earlier work
T1 sequence (P61073 whole entry): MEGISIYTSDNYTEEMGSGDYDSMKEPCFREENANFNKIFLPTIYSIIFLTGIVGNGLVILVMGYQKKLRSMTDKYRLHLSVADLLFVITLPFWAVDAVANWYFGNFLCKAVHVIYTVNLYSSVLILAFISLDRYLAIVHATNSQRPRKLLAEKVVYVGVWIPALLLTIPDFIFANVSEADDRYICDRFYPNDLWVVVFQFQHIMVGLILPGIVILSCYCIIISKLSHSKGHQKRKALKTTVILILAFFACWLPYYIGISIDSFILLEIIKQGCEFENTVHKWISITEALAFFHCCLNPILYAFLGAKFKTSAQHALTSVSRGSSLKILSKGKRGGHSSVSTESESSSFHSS

[2] = system: CXCR4/SDF-1 mediated invasion of MDA-MB-231; experiment: Matrigel invasion assay with SDF-1 as chemoattractant; type: cell-based; conditions: 100 nM
Protocol: Invasive cells penetrate matrigel and end up on the other side of the matrigel.
(§1) A salt form of 6-18-10, WZ811S, was tested in a matrigel invasion assay to measure its ability to inhibit CXCR4/SDF-mediated invasion. […] Thus, Perkin-Elmer's LANCE cAMP assay kit (Cat # AD0262) that was based on time-resolved fluorescence resonance energy transfer (TR-FRET) was tested. […] The results were measured in Perkin-Elmer's Envision multi-label microplate reader (384-wells) with conditions of flash energy area=low, flash energy level=239, counting cycle=1 ms, and ex/em=340 nm/665 nm.

[3] = molecular target: T1, CXCR4; experiment: Competitive binding assay against biotin-labeled TN14003 on MDA-MB-231 cells (immunofluorescence); set-up: endogenous in cells; host or cells: MDA-MB-231; conditions: cells pre-incubated with compound
Protocol: FIG. 4A illustrates the structure of TN14003-Biotin. […] 20,000 cells of MDA-MB-231 were seeded in 8-well slide chamber two days before experiments. Various concentration of the selected compounds (10,100, and 1000 nM) were added to the separate wells, incubated for 10 minutes at room temperature, and the cells were fixed in 4% of ice-cold paraformaldelyde. The slides were subsequently incubated with 50 ng/ml of biotin-TN14003 and streptavidin-Rhomdamine, followed by sytox blue. CXCR4—Red, nuclei-blue (sytox blue)
Screening of Small Molecule CXCR4 Antagonists With a Competitive Binding Assay Against Biotin-Labeled TN14003: T140 analogs, including TN14003, bind to the ligand binding site on CXCR4, blocking the CXCR4/SDF-1 interaction, and intervening in the progression of cancer metastasis. The discovery and development of effective, orally available small molecules also remains a major focus for many medicinal chemistry programs. […] Currently, the metal-chelating cyclams and bicyclams represent the sole class of non-peptide molecules that are known to block CXCR4. […] Trent, et al. Lipid Bilayer Simulations of XCXR4 with Inverse Agonists and Weal Partial Agonists. J. Biol. Chem. 2003 Nov. 21; 278(47):47136-44. […] This information was used to create a library of compounds with multiple, basic nitrogens throughout the molecular framework that are structurally different from AMD3100. […]

[4] = in vivo; cited from earlier work
[5] = system: HUVECs; experiment: SDF-1 induced endothelial tubular formation; type: cell-based; conditions: SDF-1 for 18 hours, pretreatment, P<0.001
[6] = system: CXCR4/SDF-1; experiment: LANCE cAMP assay (TR-FRET), SDF-1-induced cAMP reduction; type: cell-based; conditions: SDF-1 0-100 ng/ml
Protocol: as §1

[7] = molecular target: T2, CXCR4 receptor on tumor cells (Homo sapiens, UniProt P61073); experiment: Immunofluorescence competition with biotin-labeled CXCR4 antagonist and streptavidin-conjugated rhodamine; type: binding; conditions: labeled via HYNIC and [19F]-FBA
T2 construct: endogenous in cells; probably MDA-MB-231 as in the drug screen
T2 sequence (P61073 whole entry): as above
Text: FIG. 11A illustrates sub-fractions of a mixture of TN14003-HYNIC and FBA. After the conjugation steps, the mixture was fractionated with increasing acetonitrile concentration in a mobile phase. Mass spectroscopy data confirmed that fraction 6 contained TN14003-HYNIC, while the fraction […] contained 19F-labeled TN14003 (final product). Fractions 6 and 9 are indicated by arrows on the graph.
Using biotin-labeled CXCR4 antagonist along with streptavidin-conjugated rhodamine, the binding efficiency of the fluorine 19-labeled CXCR4 antagonist to CXCR4 receptor on tumor cells was determined and compared to that of the unlabeled CXCR4 antagonist in immunofluorescence as was done for drug screening, described above. Cells incubated with only streptavidin-conjugated rhodamine (negative control) were compared to cells incubated with both the biotin-labeled CXCR4 antagonist and streptavidin-conjugated rhodamine (positive control). When equal amounts of unlabeled CXCR4 antagonist were added into the biotin-labeled antagonist mixture, the red fluorescence decreased due to the competition between biotin-labeled antagonist and unlabeled antagonist. The same amount of red fluorescence decrease was seen when fluorine 19-labeled antagonist was added to the biotin-labeled antagonist mixture (FIG. 11B). […]

[8] = system: HIV; conditions: cited from earlier work; for SI=CC50/EC50: MT4 cells; for pEC50: read-out: concentration required for 50% protection of HIV-induced cytopathogenicity in MT4 cells (EC50)
[9] = system: MT4 cells; conditions: cited from earlier work
[10] = system: metastatic 686LN cells; experiment: Experimental head and neck cancer metastasis model (tail vein injection), FDG-PET imaging; type: in vivo; conditions: metastatic 686LN cells intravenously, nude mice
[11] = system: metastatic 686LN cells; experiment: Orthotopic SCCHN xenograft model (BLI, CD31 immunostaining, H&E of lungs); type: in vivo, nude mice
Text: FIG. 2 illustrates that CXCR4 antagonists block tumor malignancy in head and neck cancer. […] Subclones of squamous cell carcinoma of the head and neck (SCCHN) cell line 686LN were generated by passing these cells through several serial metastases in the SCCHN orthotopic animal model. The sub-populations of 686LN cells included one group with elevated metastatic activity and another group with non-metastatic parental cells. […] FIG. 2C is a scanned image of bioluminescence imaging of orthotopic xenografts of head and neck cancer treated with TN 14003. Metastatic 686LN cells (5×10^5) were injected into the neck area of nude mice, and they were divided into two groups, one with TN14003 treatment and the other with control peptide injection. 1 mg/kg of TN14003 was injected three times weekly i.p. TN14003 treatment started after tumors were established (day 8). Primary tumors were immunostained by using anti-CD31 antibody, and the microvessel density was calculated by averaging CD31-positive microvessels of primary tumors from each group (n=4) as illustrated in the bar graph of FIG. 2D. FIG. 2E is a scanned image of representative H & E stainings (original magnification, ×10) from two mice from each group.
The anti-tumor efficacy of the CXCR4 antagonist as also tested in an orthotopic SCCHN animal model. The metastatic cells were stably transfected with the luciferase gene (pGL2-control from Promega) for in vivo tracking purposes. These cells (500,000 cells) were injected into the submandibular subcutaneous tissue to the mylohyoid muscle of the nude mice to create an orthotopic SCCHN xenograft, and the tumor growth was followed using non-invasive Bioluminescence Imaging (BLI). […] The intraperitoneal treatment of TN14003 started 7 days after the tumor injection and lasted for 23 days compared to that of the control peptide. […]

[12] = system: CXCR4/SDF-1 mediated invasion of MDA-MB-231; conditions: Liang et al.; cited from earlier work
[13] = system: CXCR4-mediated cancer metastasis; experiment: CXCR4-mediated cancer metastasis in vivo; conditions: TN14003 three times weekly injection; WZ811S more frequent injection schedule
[14] = Text: Additionally, a synthetic 14-mer peptide blocked the CXCR4 receptor binding to its ligand SDF-1 and inhibited CXCR4/SDF-1 mediated invasion in vitro and metastasis in vivo with a higher specificity than anti-CXCR4 antibodies (R & D Systems). The anti-invasion and anti-metastasis activity of this peptide correlated well with their inhibitory activity on SDF-1α binding to CXCR4. This antagonist is proven safe by proliferation assay, animal histology, and hemopoietic progenitor cell colony formation.

c1cc(CN2CCCNCCNCCCNCC2)ccc1CN1CCCNCCNCCCNCC1 [AMD3100]
functional character at CXCR4 [1]: weak partial agonist | blocking SDF-1-induced invasion [2]: not as effective as WZ811S | concentration needed to compete against biotin-labeled TN14003 [3]: 10 µM | clinical safety outcome [4]: withdrawn due to cardiotoxicity | SDF-1 induced tubular network formation [5]: could not

SDF-1: stromal cell-derived factor 1, ligand of CXCR4
EC80 of absorption increase at 665 nM [6]: 30 ng/mL

^19F-labeled TN14003: TN14003-HYNIC conjugated with non-radioactive [19F]-fluorobenzaldehyde (RR[2Nal]CY[Cit]K[dK]PYR[Cit]CR-NH2; disulfide 4-13; also: HYNIC linker conjugated as hydrazone with [19F]-fluorobenzaldehyde, attachment site not given here)
blocking of binding of biotin-labeled TN14003 to CXCR4 on cell surface by preincubation [7]: completely blocked | binding efficiency to CXCR4 relative to unlabeled antagonist (red fluorescence decrease) ([7]; equal amounts): the same as that of unlabeled (original) antagonist

H-Arg-Arg—NaI—Cys-Tyr-Arg-Lys—DLys—Pro-Tyr-Arg—Cit—Cys-Arg—OH (H-RR[2Nal]CYRK[dK]PYR[Cit]CR-OH; ends and bridges not checked) [T140, reference compound]
SI=CC50/EC50 [8]: 17,879 | pEC50 [8]: 8.48 | CC50 [9]: 59 µM

N=C(N)NCCC[C@H](NC(=O)[C@@H]1CSSC[C@H](NC(=O)[C@H](Cc2ccc3ccccc3c2)NC(=O)[C@H](CCCNC(=N)N)NC(=O)[C@@H](N)CCCNC(=N)N)C(=O)N[C@@H](Cc2ccc(O)cc2)C(=O)N[C@@H](CCCNC(N)=O)C(=O)N[C@@H](CCCCN)C(=O)N[C@H](CCCCN)C(=O)N2CCC[C@H]2C(=O)N[C@@H](Cc2ccc(O)cc2)C(=O)N[C@@H](CCCNC(=N)N)C(=O)N[C@@H](CCCNC(N)=O)C(=O)N1)C(N)=O [TN14003, H-Arg-Arg—NaI—Cys-Tyr—Cit-Lys—DLys—Pro-Tyr-Arg—Cit—Cys-Arg—NH2] (H-RR[2Nal]CY[Cit]K[dK]PYR[Cit]CR-NH2; disulfide 4-13)
lung metastasis (FDG-PET, confirmed by histology) [10]: prevented lung metastasis of SCCHN; also recorded: inhibited lung metastasis | primary tumor growth (bioluminescence imaging) ([11]; 1 mg/kg, i.p., pre-established tumors): suppressed even the primary tumor | tumor angiogenesis / microvessel density (CD31 immunostaining) ([11]; 1 mg/kg, i.p., primary tumors): significantly blocked tumor angiogenesis at the primary site | lung metastases (H&E) ([11]; orthotopic model, treated vs control group): reduction in the metastases | SDF-1 induced tubular network formation [5]: inhibited tubular network formation | blocking SDF-1-mediated invasion versus anti-CXCR4 antibody [12]: more effectively than an anti-CXCR4 antibody | blocking of CXCR4-mediated metastasis in vivo [13]: completely inhibited CXCR4-mediated cancer metastasis in vivo | safety [14]: proven safe | SI=CC50/EC50 [8]: 680,000 | pEC50 [8]: 9.22 | CC50 [9]: 410 µM | cytotoxicity compared to T140 [9]: far less cytotoxic

From US20070258893A1, “Compositions and methods for imaging expression of cell surface receptors” (priority 2003, published 2007)
